# According to US9242984B2, “Pyrazolyl derivatives as Syk inhibitors” (Merck Sharp & Dohme Corp., priority 2012, dated 2016):
# Where two headings read alike, the source gives them in different places.
# Target: T1, recombinant human Syk (GST-hSyk fusion protein) (Homo sapiens, UniProt P43405)
# T1 construct: purchased Carna Biosciences 08-176
# Assay: Homogeneous Time-Resolved Fluorescence (HTRF) assay for the recombinant human Syk enzyme
# Format: biochemical
# Conditions: 10-dose titration, 25 μM ATP
# In short: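 GST-hSyk (5 pM) preincubated 10 min with compound (0.1% DMSO) in 15 mM Tris-HCl pH 7.5, 2 mM DTT; reaction started with 250 nM biotinylated peptide, 5 mM Mg, 25 μM ATP, 45 min, room temperature. EDTA quench, Eu-anti-phosphotyrosine/SA-APC HTRF read after 30 min; IC50 from 10-dose titration (10 μM–0.508 nM), four-parameter fit.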
# [1] = IC50 class, read-out: rhSYK Activity
SMILES,IC50 [1] [nM],IC50 (read-out: rhSYK IC50) [nM]
"CCOC(=O)CCc1cnn(-c2cc(C)cc(Nc3nccc(C)n3)c2)c1 [Example 19.6, Ethyl 3-(1-{3-methyl-5-[(4-methyl-pyrimidin-2-yl)amino]-phenyl}-1H-pyrazol-4-yl)propanoate]",100 to 1000,
Cc1cc(Nc2nccc(C(F)(F)F)n2)cc(-n2ccc(Cl)n2)c1 [19.9],100 to 1000,
"Cc1cc(Nc2nccc(C(F)F)n2)cc(-c2cnn(CC(O)CN3CCCC3=O)c2)c1 (centres unmarked) [Example 5.33, 1-{3-[4-(3-{[4-(difluoromethyl)pyrimidin-2-yl]amino}-5-methylphenyl)-1H-pyrazol-1-yl]-2-hydroxypropyl}pyrrolidin-2-one]",≤ 100,
"Cc1cc(Nc2ncccn2)cc(-c2cnn(C(C)c3ccc(C(N)=O)cc3)c2)c1 (single isomer, unassigned) [Example 28.2, 4-(1-(4-(3-methyl-5-(pyrimidin-2-ylamino)phenyl)-1H-pyrazol-1-yl)ethyl)benzamide]",≤ 100,7.2
"Cc1cc(Nc2nccc(C(F)(F)F)n2)cc(-c2cnn(C3CCC(C(=O)O)C(C)(C)C3)c2)c1 (centres unmarked) [Example 2.59, 2,2-dimethyl-4-[4-(3-methyl-5-{[4-(trifluoromethyl)pyrimidin-2-yl]amino}phenyl)-1H-pyrazol-1-yl]cyclohexanecarboxylic acid]",≤ 100,
"Cc1cc(Nc2nccc(C(F)F)n2)cc(-c2cnn(CC(O)(CO)C(F)(F)F)c2)c1 (single isomer, unassigned) [Example 32.2, (S or R)-2-((4-(3-((4-(difluoromethyl)pyrimidin-2-yl)amino)-5-methylphenyl)-1H-pyrazol-1-yl)methyl)-3,3,3-trifluoropropane-1,2-diol]",≤ 100,3.3
"COCC(C)(C)NC(=O)Cn1cc(-c2cc(C)cc(Nc3nccc(C(F)(F)F)n3)c2)cn1 [Example 3.12, N-(2-methoxy-1,1-dimethylethyl)-2-[4-(3-methyl-5-{[4-(trifluoromethyl)pyrimidin-2-yl]amino}phenyl)-1H-pyrazol-1-yl]acetamide]",100 to 1000,
"Cc1cc(Nc2nccc(C)n2)cc(-c2cnn(CC3OC(=O)NC3(C)C)c2)c1 (centres unmarked) [Example 3.105, 4,4-dimethyl-5-[(4-{3-methyl-5-[(4-methylpyrimidin-2-yl)amino]phenyl}-1H-pyrazol-1-yl)methyl]-1,3-oxazolidin-2-one]",≤ 100,
"Cc1cc(Nc2nccc(C(F)(F)F)n2)cc(-c2cnn(CC(=O)N3CCC3)c2)c1 [Example 3.26, N-{3-[1-(2-azetidin-1-yl-2-oxoethyl)-1H-pyrazol-4-yl]-5-methylphenyl}-4-(trifluoromethyl)pyrimidin-2-amine]",≤ 100,
"Cc1cc(Nc2nccc(C(F)(F)F)n2)cc(-c2cnn(C[C@@]3(O)C[C@@H](C)O[C@@H](C)C3)c2)c1 [Example 12.8, meso (2R,4S,6S)-2,6-dimethyl-4-{[4-(3-methyl-5-{[4-(trifluoro-methyl)pyrimidin-2-yl]amino}phenyl)-1H-pyrazol-1-yl]methyl}-tetrahydro-2H-pyran-4-ol]",≤ 100,
"Cc1cc(Nc2nccc(C(F)(F)F)n2)cc(-c2cnn(C[C@]3(O)CC[C@@H](C(=O)O)CC3)c2)c1 [Example 5.5, cis-4-hydroxy-4-{[4-(3-methyl-5-{[4-(trifluoro-methyl)pyrimidin-2-yl]amino}-phenyl)-1H-pyrazol-1-yl]methyl}-cyclo-hexanecarboxylic acid]",≤ 100,
"Cc1cc(Nc2nccc(C(F)(F)F)n2)cc(-c2cnn(CC(O)c3ccccc3)c2)c1 (racemic) [Example 5.1, 2-(4-(3-methyl-5-((4-(trifluoromethyl)pyrimidin-2-yl)amino)phenyl)-1H-pyrazol-1-yl)-1-phenylethanol]",≤ 100,58.5
"Cc1cc(Nc2nccc(C(C)(F)F)n2)cc(-c2cn[nH]c2)c1 [Example 1.47, 4-(1,1-difluoroethyl)-N-[3-methyl-5-(1H-pyrazol-4-yl)phenyl]pyrimidin-2-amine]",≤ 100,
"Cc1cc(Nc2nccc(C(F)F)n2)cc(-c2cnn(CC(C)(C)NS(=O)(=O)N3CCOCC3)c2)c1 [Example 27.6, N-{2-[4-(3-{[4-(difluoromethyl)pyrimidin-2-yl]amino}-5-methylphenyl)-1H-pyrazol-1-yl]-1,1-dimethylethyl}morpholine-4-sulfonamide]",≤ 100,
"Cc1cc(Nc2nccc(C(F)(F)F)n2)cc(-c2cnn(C(C)C)c2)c1 [Example 13.1, N-(3-(1-isopropyl-1H-pyrazol-4-yl)-5-methylphenyl)-4-(trifluoromethyl)-pyrimidin-2-amine]",≤ 100,10.7
"Cc1cc(Nc2nccc(C3CC3)n2)cc(-c2cnn(C[C@](C)(O)CO)c2)c1 [Example 2.90, (2S)-3-(4-{3-[(4-cyclopropylpyrimidin-2-yl)amino]-5-methylphenyl}-1H-pyrazol-1-yl)-2-methylpropane-1,2-diol]",≤ 100,
"O=C(O)CCn1cc(-c2cccc(Nc3cc(C(F)(F)F)ccn3)n2)cn1 [Example 1.19, 3-[4-(6-{[4-(trifluoromethyl)pyridin-2-yl]amino}pyridin-2-yl)-1H-pyrazol-1-yl]propanoic acid]",≤ 100,

SMILES,IC50 [1] [nM],IC50 (read-out: rhSYK IC50) [nM]
"Cc1cc(Nc2nccc(C(F)F)n2)cc(-c2cnn(C3CCCC(O)C3O)c2)c1 (single isomer, unassigned) [Example 10.7, 3-[4-(3-{[4-(difluoromethyl)pyrimidin-2-yl]amino}-5-methylphenyl)-1H-pyrazol-1-yl]cyclohexane-1,2-diol]",≤ 100,0.7
"COC(=O)C(C)n1cc(-c2cc(C)cc(Nc3nccc(C(F)(F)F)n3)c2)cn1 (centres unmarked) [Example 3.29, methyl 2-[4-[3-methyl-5-{[4-(trifluoromethyl)-pyrimidin-2-yl]amino}-phenyl)-1H-pyrazol-1-yl]propanoate]",≤ 100,
"Cc1cc(Nc2nccc(OCCO)n2)cc(-c2cnn(C[C@H](O)C(N)=O)c2)c1 [Example 6.2, (2S)-2-hydroxy-3-[4-(3-{[4-(2-hydroxyethoxy)pyrimidin-2-yl]amino}-5-methylphenyl)-1H-pyrazol-1-yl]propanamide]",≤ 100,
"Cc1cc(Nc2nccc(C(F)(F)F)n2)cc(-c2ccnn2C)c1 [Example 1.9, N-[3-methyl-5-(1-methyl-1H-pyrazol-5-yl)phenyl]-4-(trifluoromethyl)pyrimidin-2-amine]",100 to 1000,
"O=C1NCC(Cn2cc(-c3cccc(Nc4nccc(C(F)(F)F)n4)c3)cn2)O1 (centres unmarked) [Example 2.34, 5-{[4-(3-{[4-(trifluoromethyl)pyrimidin-2-yl]amino}phenyl)-1H-pyrazol-1-yl]methyl}-1,3-oxazolidin-2-one]",≤ 100,
"Cc1cc(Nc2nccc(C)n2)cc(-c2cnn(C3CCC(C(=O)O)CC3)c2)c1 (centres unmarked) [Example 1.58, 4-(4-{3-methyl-5-[(4-methylpyrimidin-2-yl)amino]phenyl}-1H-pyrazol-1-yl)cyclohexanecarboxylic acid]",≤ 100,
"Cc1cc(Nc2cc(C(C)(F)F)ccn2)nc(-c2cnn(CC3CNC(=O)O3)c2)c1 (centres unmarked) [Example 3.86, 5-{[4-(6-{[4-(1,1-difluoroethyl)pyridin-2-yl]amino}-4-methylpyridin-2-yl)-1H-pyrazol-1-yl]methyl}-1,3-oxazolidin-2-one]",≤ 100,
Cc1cc(Nc2nccc(C(F)(F)F)n2)cc(-c2cnn(CCS(N)(=O)=O)c2)c1 [9.2],≤ 100,
"O=C(O)CCn1cc(-c2cccc(Nc3nccc(C(F)(F)F)n3)c2)cn1 [Example 2.5, 3-[4-(3-{[4-(trifluoro-methyl)pyrimidin-2-yl]amino}phenyl)-1H-pyrazol-1-yl]-propanoic acid]",≤ 100,
"Cc1cc(Nc2nccc(C(F)(F)F)n2)cc(-c2cnn(CC(O)c3ccc(C(N)=O)cc3)c2)c1 (centres unmarked) [Example 8.12, 4-{1-hydroxy-2-[4-(3-methyl-5-{[4-(trifluoromethyl)-pyrimidin-2-yl]amino}-phenyl)-1H-pyrazol-1-yl]ethyl}benzamide]",≤ 100,
"Cc1cc(Nc2nccc(C(F)(F)F)n2)cc(-c2cnn(CC(=O)N3[C@H](C)COC[C@@H]3C)c2)c1 [Example 3.14, N-[3-(1-{2-[(3r,5s)-3,5-dimethyl-morpholin-4-yl]-2-oxoethyl}-1H-pyrazol-4-yl)-5-methylphenyl]-4-(trifluoromethyl)-pyrimidin-2-amine]",100 to 1000,
"Cc1cc(Nc2cc(C3CC3)ccn2)nc(-c2cnn(CC3(O)CCC3)c2)c1 [Example 29.7, 1-[(4-{6-[(4-cyclopropylpyridin-2-yl)amino]-4-methylpyridin-2-yl}-1H-pyrazol-1-yl)methyl]cyclobutanol]",≤ 100,
"Cc1cc(Nc2nccc(C)n2)cc(-c2cnn(CC(C)(O)CO)c2)c1 (single isomer, unassigned) [Example 25.4, 2-methyl-3-(4-{3-methyl-5-[(4-methylpyrimidin-2-yl)amino]phenyl}-1H-pyrazol-1-yl)propane-1,2-diol]",≤ 100,
"Cc1cc(Nc2nccc([C@@H](C)F)n2)cc(-c2cnn(CC(C)(O)CO)c2)c1 (single isomer, unassigned) [Example 25.8]",≤ 100,
"Cc1cc(Nc2nccc(C(F)(F)F)n2)cc(-c2cnn(CC(O)c3ccc(C(=O)O)cc3)c2)c1 (centres unmarked) [Example 3.53, 4-{1-hydroxy-2-[4-(3-methyl-5-{[4-(trifluoromethyl)pyrimidin-2-yl]amino}-phenyl)-1H-pyrazol-1-yl]ethyl}benzoic acid]",≤ 100,
"Cc1cc(Nc2nccc(C(F)(F)F)n2)cc(-c2cnn(C3CCC(C(N)=O)C(C)(C)C3)c2)c1 (centres unmarked) [Example 8.19, 2,2-dimethyl-4-[4-(3-methyl-5-{[4-(trifluorometh-yl)pyrimidin-2-yl]amino}phenyl)-1H-pyrazol-1-yl]-cyclohexanecarbox-amide]",≤ 100,
